# Where a name gives a salt, the structure may show the parent alone.
# Target: MCL-1 (Homo sapiens (Human), UniProt Q07820, K194A/K197A/R201A)
# Test: Protein-protein interaction assay MCL-1/Noxa BH3 peptide (MCL-1 assay, TR-FRET)
# Format: binding
# Settings: MCL-1 Assay IC50 (median)
# Outline: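 Competition TR-FRET with MBP-MCL-1 (aa 173-321) at 1 nM final and biotinylated Noxa BH3 peptide, pH 7 Tris buffer. Compounds pre-incubated 10 min at 22° C., then 1 h at 22° C. and overnight at 4° C. 665/620 nm ratio normalized to DMSO; IC50 from 4-parameter fit.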
# MCL-1, sequence (Q07820 whole entry, looked up, stated change not applied): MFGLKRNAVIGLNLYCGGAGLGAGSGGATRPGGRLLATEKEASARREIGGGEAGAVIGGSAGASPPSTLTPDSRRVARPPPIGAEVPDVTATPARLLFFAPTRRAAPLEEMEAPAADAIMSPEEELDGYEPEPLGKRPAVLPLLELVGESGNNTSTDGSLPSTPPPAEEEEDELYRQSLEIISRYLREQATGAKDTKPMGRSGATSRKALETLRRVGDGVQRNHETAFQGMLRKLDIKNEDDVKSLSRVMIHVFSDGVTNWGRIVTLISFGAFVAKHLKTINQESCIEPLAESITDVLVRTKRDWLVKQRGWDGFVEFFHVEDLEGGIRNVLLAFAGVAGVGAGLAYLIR
row,Structure (SMILES),IC50 [nM]
1,"CCc1c2c(nn1C)C(CCO)OCCCCn1c(C(=O)O)c(CCCOc3cccc4cc(F)ccc34)c3ccc(Cl)c-2c31 (single isomer, unassigned; enantiomer 2) [Example 46, (−)-4-chloro-3-ethyl-7-{3-[(6-fluoronaphthalen-1-yl)oxy]propyl}-15-(2-hydroxyethyl)-2-methyl-2,10,11,12,13,15-hexahydropyrazolo[4′,3′:9,10][1,6]oxazacycloundecino[8,7,6-hi]indole-8-carboxylic Acid (Enantiomer 2)]",36
2,"Cc1c2c(nn1C)C(C)OCCCCn1c(C(=O)O)c(CCCOc3cccc4ccccc34)c3cccc-2c31 (single isomer, unassigned; stereoisomer 1) [Example 2, 2,3,15-trimethyl-7-[3-(naphthalen-1-yloxy)propyl]-2,10,11,12,13,15-hexahydropyrazolo[4′,3′:9,10][1,6]oxazacycloundecino[8,7,6-hi]indole-8-carboxylic Acid Trifluoroacetic Acid Salt (Stereoisomer 1)]",1.2

# Other lines, results leading:
row,IC50 [nM],Structure (SMILES)
1,75,"Cc1c2c(nn1C)C(CCO)OCCCCn1c(C(=O)O)c(CCCOc3cccc4ccccc34)c3ccc(Cl)c-2c31 (single isomer, unassigned; enantiomer 2) [Example 32, (−)-4-chloro-15-(2-hydroxyethyl)-2,3-dimethyl-7-{3-[(naphthalen-1-yl)oxy]propyl}-2,10,11,12,13,15-hexahydropyrazolo[4′,3′:9,10][1,6]oxazacycloundecino[8,7,6-hi]indole-8-carboxylic Acid (Enantiomer 2)]"
2,0.66,"Cc1c2c(nn1C)C(CCN1CCOCC1)OCCCCn1c(C(=O)O)c(CCCOc3cccc4ccccc34)c3ccc(F)c-2c31 (racemic) [Example 7, (rac)-4-fluoro-2,3-dimethyl-15-[2-(morpholin-4-yl)ethyl]-7-[3-(naphthalen-1-yloxy)propyl]-2,10,11,12,13,15-hexahydropyrazolo[4′,3′:9,10][1,6]oxazacycloundecino[8,7,6-hi]indole-8-carboxylic Acid]"

# Target: MCL1 protein / biotinylated BIM BH3 peptide in RKO cells (Homo sapiens (Human), UniProt Q07820)
# Sequence (Q07820 whole entry): as the sequence (Q07820 whole entry, looked up, stated change not applied) above
# Test: PIxEL: protein-protein interaction in permeabilized cells by ELISA (Assay 5)
# Format: cell-based
# Settings: PIxEL IC50 (median)
# Experimental: PIxEL: Protein-Protein Interaction in Permeabilized Cells by ELISA
# Most MCL1 protein molecules are localized at the mitochondria outer membrane and sequester pro-apoptotic proteins through binding of their BCL2 homology domain 3 (BH3 domain). MEB buffer (150 mM mannitol, 10 mM HEPES pH 7.5, 50 mM KCl, 20 μM EDTA, 20 μM EGTA, 5 mM potassium succinate, 0.1% protease-free BSA (SIGMA) with low dose digitonin (0.002%) permeabilizes plasma membrane while leaves live mitochondria, where MCL1 maintains its native localization and conformation. Unlike biophysical assays (e.g. TR-FRET) that use truncated recombinant MCL1 protein, this assay uses full length endogenous MCL1 protein at mitochondria outer membrane. It measures the interaction between MCL1 protein and biotinylated BIM BH3 peptide. Compounds can compete with BIM BH3 peptide to bind to MCL1 protein.
# On day 1, RKO colon cancer cell line cells were plated at 0.8 million cells/ml, 100 μl/well in 96-well flat bottom TC plates (Corning). MCL1 antibody (Santa Cruz sc-12756) were diluted at 200 fold (final concentration 1 μg/ml) in carbonate buffer (Thermo Fisher Scientific, pH 9.6), and 50 μl of diluted antibody was added to each well of high bind ELISA plates ([…]). Each plate was tapped to make sure liquid covering entire bottom of wells and incubate at 37° C. overnight.
# On the second day, MCL1 antibody was washed from ELISA plate. 250 μl Odyssey® Blocking Buffer (PBS) (Li-Cor) was added to each well, incubated at room temperature for at least 1 hour, then washed once with 250 μl 1×PBST. Plates with RKO cells were gently washed once with 100 μl/well PBS, once with 100 μl/well MEB buffer without digitonin, then 100 μl of MEB buffer with 0.002% digitonin was gently added to each well. Compounds were added with HP Tecan compound dispenser in 3-fold dilution series, highest dose 30 μM, 10-dose per compound in quadruplicates. Biotin-BIM peptide (synthesized by 21st Century) was added with HP Tecan compound dispenser at 0.2 μM immediately after the addition of compounds. Plates were rocked for 1 hour at room temperature. Then MEB buffer was aspirated and 50 μl of CHAPS buffer (50 mM Tris-Cl, pH 7.4, 150 mM NaCl, 1% CHAPS, 1 mM EDTA, 1 mM EGTA, cOmplete protease inhibitors (Roche), PhosSTOP (Roche)) was added to each well. Plates were rocked for 1 hour at 4° C., then 45 μl cell lysate from each well were transferred to ELISA plates coated with MCL1 antibody. Plates were incubated overnight in the cold room with rocking.
# On the third day, ELISA plates were washed once with 250 μl 1×PBST. Streptavidin-poly-HRP (Thermo Fisher Scientific) was diluted to 20 ng/ml in Odyssey blocking buffer plus 0.05% Triton-100, and 100 μl was added to each well of the ELISA plate. Plates were incubated at room temperature for 1 hour with rocking, then washed with 100 μl 1×PBST for 3 times. Each SuperSignal ELISA Femto Maximum Sensitivity substrate was added to a 50-ml tube and mixed, then 100 μl of mixed substrate was added to each well. Plates were shaken for 1 minute then luminescence was measured by Envision plate reader […]. Signal of each well were normalized by no-compound control and no-cell control. IC50 was calculated using Graphic Pad PRISM software.
row,Structure (SMILES),IC50 [µM]
1,"Cc1c2c(nn1C)C(CCN1CCOCC1)OCCCCn1c(C(=O)O)c(CCCOc3cccc4cc(F)ccc34)c3ccc(F)c-2c31 (single isomer, unassigned; enantiomer 1) [Example 20, 4-fluoro-7-{3-[(6-fluoronaphthalen-1-yl)oxy]propyl}-2,3-dimethyl-15-[2-(morpholin-4-yl)ethyl]-2,10,11,12,13,15-hexahydropyrazolo[4′,3′:9,10][1,6]oxazacycloundecino[8,7,6-hi]indole-8-carboxylic Acid—N-ethylethanamine (Enantiomer 1)]",0.1
2,"CCc1c2c(nn1C)C(CCOC)OCCCCn1c(C(=O)O)c(CCCOc3cccc4cc(F)ccc34)c3ccc(Cl)c-2c31 (single isomer, unassigned; enantiomer 1) [Example 42, (+)-4-chloro-3-ethyl-7-{3-[(6-fluoronaphthalen-1-yl)oxy]propyl}-15-(2-methoxyethyl)-2-methyl-2,10,11,12,13,15-hexahydropyrazolo[4′,3′:9,10][1,6]oxazacycloundecino[8,7,6-hi]indole-8-carboxylic Acid—N-ethylethanamine Salt (Enantiomer 1)]",0.0451
3,"CCC1OCCCCn2c(C(=O)O)c(CCCOc3cccc4ccccc34)c3ccc(Cl)c(c32)-c2c1nn(C)c2C (single isomer, unassigned; enantiomer 1) [Example 29, (+)-4-chloro-15-ethyl-2,3-dimethyl-7-{3-[(naphthalen-1-yl)oxy]propyl}-2,10,11,12,13,15-hexahydropyrazolo[4′,3′:9,10][1,6]oxazacycloundecino[8,7,6-hi]indole-8-carboxylic Acid—N-ethylethanamine Salt (Enantiomer 1)]",1.06
4,"CCc1c2c(nn1C)C(CCC1CCOCC1)OCCCCn1c(C(=O)O)c(CCCOc3cccc4cc(F)ccc34)c3ccc(Cl)c-2c31 (single isomer, unassigned; enantiomer 1) [Example 63, (+)-4-chloro-3-ethyl-7-{3-[(6-fluoronaphthalen-1-yl)oxy]propyl}-2-methyl-15-[2-(oxan-4-yl)ethyl]-2,10,11,12,13,15-hexahydropyrazolo[4′,3′:9,10][1,6]oxazacycloundecino[8,7,6-hi]indole-8-carboxylic Acid—N-ethylethanamine Salt (Enantiomer 1)]",0.0142
5,"CCc1c2c(nn1C)C(CCN1CC(F)(F)C1)OCCCCn1c(C(=O)O)c(CCCOc3cccc4cc(F)ccc34)c3ccc(Cl)c-2c31 (single isomer, unassigned; (+)) [Example 78, (+)-4-chloro-15-[2-(3,3-difluoroazetidin-1-yl)ethyl]-3-ethyl-7-{3-[(6-fluoronaphthalen-1-yl)oxy]propyl}-2-methyl-2,10,11,12,13,15-hexahydropyrazolo[4′,3′:9,10][1,6]oxazacycloundecino[8,7,6-hi]indole-8-carboxylic Acid—N-ethylethanamine Salt]",0.0434
6,"CCc1c2c(nn1C)C(C1CC1)OCCCCn1c(C(=O)O)c(CCCOc3cccc4cc(F)ccc34)c3ccc(Cl)c-2c31 (single isomer, unassigned; enantiomer 1) [Example 39, (+)-4-chloro-15-cyclopropyl-3-ethyl-7-{3-[(6-fluoronaphthalen-1-yl)oxy]propyl}-2-methyl-2,10,11,12,13,15-hexahydropyrazolo[4′,3′:9,10][1,6]oxazacycloundecino[8,7,6-hi]indole-8-carboxylic Acid—N-ethylethanamine Salt (Enantiomer 1)]",0.317
7,"Cc1c2c(nn1C)C(CCN1CCOCC1)OCCCCn1c(C(=O)O)c(CCCOc3cccc4cc(F)ccc34)c3ccc(Cl)c-2c31 (single isomer, unassigned; enantiomer 1) [Example 17, 4-chloro-7-{3-[(6-fluoronaphthalen-1-yl)oxy]propyl}-2,3-dimethyl-15-[2-(morpholin-4-yl)ethyl]-2,10,11,12,13,15-hexahydropyrazolo[4′,3′:9,10][1,6]oxazacycloundecino[8,7,6-hi]indole-8-carboxylic Acid—N-ethylethanamine (Enantiomer 1)]",0.0357
8,"CCc1c2c(nn1C)C(CCC(C)(C)O)OCCCCn1c(C(=O)O)c(CCCOc3cccc4cc(F)ccc34)c3ccc(Cl)c-2c31 (single isomer, unassigned; enantiomer 1) [Example 75, (+)-4-chloro-3-ethyl-7-{3-[(6-fluoronaphthalen-1-yl)oxy]propyl}-15-(3-hydroxy-3-methylbutyl)-2-methyl-2,10,11,12,13,15-hexahydropyrazolo[4′,3′:9,10][1,6]oxazacycloundecino[8,7,6-hi]indole-8-carboxylic Acid—N-ethylethanamine Salt (Enantiomer 1)]",0.0275

# Same assay, conditions: PIxEL IC50 (median), uM
row,Structure (SMILES),IC50 [µM]
1,"CCc1c2c(nn1C)C(CCN1CCOCC1)OCCCCn1c(C(=O)O)c(CCCOc3cccc4ccccc34)c3ccc(F)c-2c31 (single isomer, unassigned; enantiomer 1) [Example 11, 3-ethyl-4-fluoro-2-methyl-15-[2-(morpholin-4-yl)ethyl]-7-{3-[(naphthalen-1-yl)oxy]propyl}-2,10,11,12,13,15-hexahydropyrazolo[4′,3′:9,10][1,6]oxazacycloundecino[8,7,6-hi]indole-8-carboxylic Acid—N-ethylethanamine Salt (Enantiomer 1)]",> 30
